Our source for the inhibition and melting point values is patent US7666890B2, “Synthesis and herbicidal activity of 1- (2-substituted benzo[d]thiazol-5-yl)-1H-1,2,4-triazol-5(4H)-one derivatives” (Huazhong Normal University, priority 2007, dated 2010).

One series deals with Chenopodium album. Nature of the series: Test of herbicidal activities (greenhouse pot method). Type of series: in vivo. The following applies: Chenopodium album, 360 h; single dose 300 g ai./h, treated before/after germination, 15 days later, greenhouse pot; read-out: Herbicidal activity Chenopodium album (inhibition level). The essentials: (§1)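 Weeds were sown in soil-filled pots at 15–30 °C and treated once by spray tower at 300 g ai./h, either before emergence or post-emergence at the 2-leaf stage, in three replicates with an untreated control. Symptoms were scored 15 days later into five classes from A (≥90%) to E (<50%).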

The subject of the next series is Echinochloa crusgalli. The description is as above. The series is classed as in vivo. The note with it: Echinochloa crus-galli, 360 h; single dose 300 g ai./h, treated before/after germination, 15 days later, greenhouse pot; read-out: Herbicidal activity Echinochloa crusgalli (inhibition level). In outline: as §1
Another series relates to Digiatria sanguinalis. The series is described as above. Type of series: in vivo. The following applies: 360 h; single dose 300 g ai./h, treated before/after germination, 15 days later, greenhouse pot; read-out: Herbicidal activity Digiatria sanguinalis (inhibition level). In outline: as §1
For a further series, the system named is Brassica juncea. Described as above. Type of series: in vivo. The note with it: Brassica juncea, 360 h; single dose 300 g ai./h, treated before/after germination, 15 days later, greenhouse pot; read-out: Herbicidal activity Brassica juncea (inhibition level). In outline:
as §1

The test system of another series is Amaranthus retroflexus. The series is described as above. Type of series: in vivo. The following applies: Amaranthus retroflexus, 360 h; single dose 300 g ai./h, treated before/after germination, 15 days later, greenhouse pot; read-out: Herbicidal activity Amaranthus retroflexus (inhibition level). In outline: as §1
The next series relates to Setaria viridis. The series is described as above. Type of series: in vivo. The note with it: Setaria viridis, 360 h; single dose 300 g ai./h, treated before/after germination, 15 days later, greenhouse pot; read-out: Herbicidal activity Setaria viridis (inhibition level). In outline:
as §1

Each structure is given as a SMILES string.

Consider `Cc1nn(-c2cc3nc(S(=O)(=O)Cc4ccccc4Cl)sc3cc2Cl)c(=O)n1C(F)F` [Compound 39, 1-(2-(2-chlorobenzylsulfonyl)-6-chlorobenzo[d]thiazol-5-yl)-4-(difluoromethyl)-3-methyl-1H-1,2,4-triazol-5(4H)-one], for which the melting point is 196 to 198 °C. The inhibition at 300 g/ha with Chenopodium album is 60 to 80%. Moreover, the inhibition at 300 g/ha with Echinochloa crusgalli is < 50%. Moreover, in the series on Digiatria sanguinalis, the inhibition at 300 g/ha was 60 to 80%. Besides, in the series with Brassica juncea, the inhibition at 300 g/ha was 80 to 90%. Further, the inhibition at 300 g/ha in the series on Amaranthus retroflexus fell in the range of 80 to 90%. For the same molecule, the inhibition at 300 g/ha in the series with Setaria viridis was in the range of 60 to 80%.

In the case of `Cc1nn(-c2cc3nc([S+](C)[O-])sc3cc2F)c(=O)n1C` (centres unmarked) [Compound 102, 1-(6-fluoro-2-(methylsulfinyl)benzo[d]thiazol-5-yl)-3,4-dimethyl-1H-1,2,4-triazol-5(4H)-one], the melting point is 199 to 201 °C. In the series on Chenopodium album, the inhibition at 300 g/ha lay within 90 to 100%. For the same molecule, in the series on Echinochloa crusgalli, the inhibition at 300 g/ha was < 50%. Besides, the inhibition at 300 g/ha with Digiatria sanguinalis lay in the range of 50 to 60%. For the same molecule, the inhibition at 300 g/ha in the series with Brassica juncea was in the range of 60 to 80%. For the same molecule, the inhibition at 300 g/ha in the series with Amaranthus retroflexus was in the range of 80 to 90%. The inhibition at 300 g/ha in the series on Setaria viridis fell in the range of 60 to 80%.
